US20250215012A1, “IKZF2 DEGRADERS AND USES THEREOF” (REGENTS OF THE UNIVERSITY OF MICHIGAN, priority 2022, published 2025)

Target: IKZF2 (Homo sapiens (Human), UniProt Q96SW2+Q9UKS7)
Experiment: IKZF2 HiBiT Assay (Jurkat-IKZF2-HiBiT cell line)
Assay type: cell-based
Settings: Jurkat-IKZF2-HiBiT cells, 24 hours; for DC50: read-out: HiBit assay degradation analysis DC50; for Dmax: read-out: HiBit assay degradation analysis Dmax
Method in brief: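 IKZF2 degradation was assessed as HiBiT luminescence in Jurkat-IKZF2-HiBiT cells, using lytic detection after 24 h of compound treatment at 37 °C, 5% CO2.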

Chain of IKZF2 (Q9UKS7 whole entry): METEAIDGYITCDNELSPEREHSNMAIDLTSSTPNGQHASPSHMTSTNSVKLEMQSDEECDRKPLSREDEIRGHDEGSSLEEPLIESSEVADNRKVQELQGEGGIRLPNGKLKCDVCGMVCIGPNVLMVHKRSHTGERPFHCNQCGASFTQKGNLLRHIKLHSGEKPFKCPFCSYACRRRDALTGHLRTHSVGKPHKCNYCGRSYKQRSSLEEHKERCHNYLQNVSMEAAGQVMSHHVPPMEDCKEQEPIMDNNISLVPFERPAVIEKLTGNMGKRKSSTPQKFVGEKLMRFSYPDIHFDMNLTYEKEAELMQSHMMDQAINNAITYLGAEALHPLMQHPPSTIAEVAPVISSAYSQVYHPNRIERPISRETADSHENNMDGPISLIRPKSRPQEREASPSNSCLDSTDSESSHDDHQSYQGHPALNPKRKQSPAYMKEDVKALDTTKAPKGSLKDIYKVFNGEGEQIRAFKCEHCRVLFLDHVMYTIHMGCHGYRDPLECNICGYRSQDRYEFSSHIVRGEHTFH
Chain of IKZF2 (Q96SW2 whole entry): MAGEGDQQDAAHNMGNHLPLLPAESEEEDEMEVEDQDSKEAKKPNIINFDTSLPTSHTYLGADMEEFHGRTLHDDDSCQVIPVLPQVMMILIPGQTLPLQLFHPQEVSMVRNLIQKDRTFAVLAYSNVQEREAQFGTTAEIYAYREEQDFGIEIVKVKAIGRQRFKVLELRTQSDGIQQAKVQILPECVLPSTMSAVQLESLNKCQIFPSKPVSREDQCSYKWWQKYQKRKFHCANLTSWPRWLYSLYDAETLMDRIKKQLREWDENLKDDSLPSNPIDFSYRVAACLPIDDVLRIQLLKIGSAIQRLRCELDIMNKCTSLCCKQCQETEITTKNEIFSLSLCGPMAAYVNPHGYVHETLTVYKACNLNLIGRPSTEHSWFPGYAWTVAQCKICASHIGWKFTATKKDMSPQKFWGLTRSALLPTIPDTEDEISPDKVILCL
Chain of IKZF2 (Q16531 whole entry partner): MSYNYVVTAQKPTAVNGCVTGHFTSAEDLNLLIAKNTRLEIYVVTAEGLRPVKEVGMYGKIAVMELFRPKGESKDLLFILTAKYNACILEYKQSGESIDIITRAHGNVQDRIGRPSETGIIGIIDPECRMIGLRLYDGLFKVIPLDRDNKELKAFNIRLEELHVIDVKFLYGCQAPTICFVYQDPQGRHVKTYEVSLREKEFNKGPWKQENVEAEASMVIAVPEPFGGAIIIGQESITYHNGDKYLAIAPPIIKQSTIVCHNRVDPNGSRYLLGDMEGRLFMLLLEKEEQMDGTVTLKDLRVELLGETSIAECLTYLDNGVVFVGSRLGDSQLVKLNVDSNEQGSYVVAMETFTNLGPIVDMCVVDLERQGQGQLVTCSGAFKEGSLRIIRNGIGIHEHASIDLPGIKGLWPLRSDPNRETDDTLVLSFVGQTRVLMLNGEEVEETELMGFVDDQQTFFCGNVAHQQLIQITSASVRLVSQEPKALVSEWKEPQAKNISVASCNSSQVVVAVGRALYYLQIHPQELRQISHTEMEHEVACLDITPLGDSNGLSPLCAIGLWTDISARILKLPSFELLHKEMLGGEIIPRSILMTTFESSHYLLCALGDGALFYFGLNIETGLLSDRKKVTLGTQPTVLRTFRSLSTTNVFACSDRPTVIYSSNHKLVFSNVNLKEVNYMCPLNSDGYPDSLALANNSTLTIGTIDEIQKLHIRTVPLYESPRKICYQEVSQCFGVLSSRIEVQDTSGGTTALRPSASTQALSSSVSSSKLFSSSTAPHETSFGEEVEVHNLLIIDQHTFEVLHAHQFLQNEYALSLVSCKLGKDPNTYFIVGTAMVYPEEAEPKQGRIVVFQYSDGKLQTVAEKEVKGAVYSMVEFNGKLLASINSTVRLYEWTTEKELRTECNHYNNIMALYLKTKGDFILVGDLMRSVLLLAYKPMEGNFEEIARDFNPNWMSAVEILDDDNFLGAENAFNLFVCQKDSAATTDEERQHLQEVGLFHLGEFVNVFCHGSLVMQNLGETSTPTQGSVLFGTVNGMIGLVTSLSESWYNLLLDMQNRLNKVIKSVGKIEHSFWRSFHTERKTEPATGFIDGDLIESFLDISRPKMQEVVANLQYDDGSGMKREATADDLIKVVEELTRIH

Compound	DC50	Dmax
CC1(C)Cc2c(CN3CCC4(CC3)COc3c4ccc4c3CN(C3CCC(=O)NC3=O)C4=O)cccc2O1 (centres unmarked) [Compound A326, 3-(1′-((2,2-dimethyl-2,3-dihydrobenzofuran-4-yl)methyl)-6-oxo-6,8-dihydro-2H,7H-spiro[furo[2,3-e]isoindole-3,4′-piperidin]-7-yl)piperidine-2,6-dione]	> 500 nM	40 to 60%
CCC(c1ccccc1)N1CCC2(CC1)COc1c2ccc2c1CN(C1CCC(=O)NC1=O)C2=O (centres unmarked) [Compound A330, 3-(6-oxo-1′-(1-phenylpropyl)-6,8-dihydro-2H,7H-spiro[furo[2,3-e]isoindole-3,4′-piperidin]-7-yl)piperidine-2,6-dione]	< 50 nM	60 to 80%
Cc1cc2c(CN3CCC4(CC3)COc3c4ccc4c3CN(C3CCC(=O)NC3=O)C4=O)cccc2[nH]1 (centres unmarked) [Compound A121, 3-(1′-((2-methyl-1H-indol-4-yl)methyl)-6-oxo-6,8-dihydro-2H,7H-spiro[furo[2,3-e]isoindole-3,4′-piperidin]-7-yl)piperidine-2,6-dione]	< 50 nM	60 to 80%
O=C1CCC(N2Cc3c(ccc4c3OCC43CCN(Cc4ccccc4Cn4cccn4)CC3)C2=O)C(=O)N1 (centres unmarked) [Compound A155, 3-(1′-(2-((1H-pyrazol-1-yl)methyl)benzyl)-6-oxo-6,8-dihydro-2H,7H-spiro[furo[2,3-e]isoindole-3,4′-piperidin]-7-yl)piperidine-2,6-dione]	> 500 nM	40 to 60%
O=C1CCC(N2Cc3c(ccc4c3OCC43CCN(Cc4ccnn4C4CCOCC4)CC3)C2=O)C(=O)N1 (centres unmarked) [Compound A255, 3-(6-oxo-1′-((1-(tetrahydro-2H-pyran-4-yl)-1H-pyrazol-5-yl)methyl)-6,8-dihydro-2H,7H-spiro[furo[2,3-e]isoindole-3,4′-piperidin]-7-yl)piperidine-2,6-dione]	> 500 nM	< 40%
O=C1CC[C@H](N2Cc3c(ccc4c3OCC43CCN(CC4CCCN(C(=O)c5ccccc5)C4)CC3)C2=O)C(=O)N1 (stereo partly drawn) [Compound A305, (3S)-3-(1′-((1-benzoylpiperidin-3-yl)methyl)-6-oxo-6,8-dihydro-2H,7H-spiro[furo[2,3-e]isoindole-3,4′-piperidin]-7-yl)piperidine-2,6-dione]	> 500 nM	40 to 60%
O=C1CCC(N2Cc3c(ccc4c3OCC43CCN(CC4CCCC(c5ccccc5)C4)CC3)C2=O)C(=O)N1 (centres unmarked) [Compound A181, 3-(6-oxo-1′-((3-phenylcyclohexyl)methyl)-6,8-dihydro-2H,7H-spiro[furo[2,3-e]isoindole-3,4′-piperidin]-7-yl)piperidine-2,6-dione]	200 to 500 nM	40 to 60%
COCc1cccc(CN2CCC3(CC2)COc2c3ccc3c2CN(C2CCC(=O)NC2=O)C3=O)c1 (centres unmarked) [Compound A112, 3-(1′-(3-(methoxymethyl)benzyl)-6-oxo-6,8-dihydro-2H,7H-spiro[furo[2,3-e]isoindole-3,4′-piperidin]-7-yl)piperidine-2,6-dione]	200 to 500 nM	60 to 80%
O=C1CCC(N2Cc3c(ccc4c3OCC43CCN(Cc4ccccc4-n4ccnc4)CC3)C2=O)C(=O)N1 (centres unmarked) [Compound A149, 3-(1′-(2-(1H-imidazol-1-yl)benzyl)-6-oxo-6,8-dihydro-2H,7H-spiro[furo[2,3-e]isoindole-3,4′-piperidin]-7-yl)piperidine-2,6-dione]	> 500 nM	< 40%
O=C1CCC(N2Cc3c(ccc4c3OCC43CCN(Cc4ccc(C(F)(F)F)cc4)CC3)C2=O)C(=O)N1 (centres unmarked) [Compound A194, 3-(6-oxo-1′-(4-(trifluoromethyl)benzyl)-6,8-dihydro-2H,7H-spiro[furo[2,3-e]isoindole-3,4′-piperidin]-7-yl)piperidine-2,6-dione]	> 500 nM	< 40%
Cn1ncc2cccc(CN3CCC4(CC3)COc3c4ccc4c3CN(C3CCC(=O)NC3=O)C4=O)c21 (centres unmarked) [Compound A53, 3-(1′-((1-methyl-1H-indazol-7-yl)methyl)-6-oxo-6,8-dihydro-2H,7H-spiro[furo[2,3-e]isoindole-3,4′-piperidin]-7-yl)piperidine-2,6-dione]	> 500 nM	40 to 60%
O=C1CC[C@H](N2Cc3c(ccc4c3OCC43CCN(Cc4ccc5cc[nH]c5c4)CC3)C2=O)C(=O)N1 [Compound A172, (S)-3-(1′-((1H-indol-6-yl)methyl)-6-oxo-6,8-dihydro-2H,7H-spiro[furo[2,3-e]isoindole-3,4′-piperidin]-7-yl)piperidine-2,6-dione]	< 50 nM	60 to 80%
O=C1CCC(N2Cc3c(ccc4c3OCC43CCN(Cc4cccc(-c5ccccc5)c4)CC3)C2=O)C(=O)N1 (centres unmarked) [Compound A102, 3-(1′-([1,1′-biphenyl]-3-ylmethyl)-6-oxo-6,8-dihydro-2H,7H-spiro[furo[2,3-e]isoindole-3,4′-piperidin]-7-yl)piperidine-2,6-dione]	200 to 500 nM	40 to 60%
O=C1CCC(N2Cc3c(ccc4c3OCC43CCN(CC4CCN(c5ccccc5)C4)CC3)C2=O)C(=O)N1 (centres unmarked) [Compound A138, 3-(6-oxo-1′-((1-phenylpyrrolidin-3-yl)methyl)-6,8-dihydro-2H,7H-spiro[furo[2,3-e]isoindole-3,4′-piperidin]-7-yl)piperidine-2,6-dione]	> 500 nM	40 to 60%
O=C1CCC(N2Cc3c(ccc4c3OCC43CCN(Cc4ccsc4)CC3)C2=O)C(=O)N1 (centres unmarked) [Compound A183, 3-(6-oxo-1′-(thiophen-3-ylmethyl)-6,8-dihydro-2H,7H-spiro[furo[2,3-e]isoindole-3,4′-piperidin]-7-yl)piperidine-2,6-dione]	200 to 500 nM	40 to 60%
[2H]C([2H])([2H])n1ncc2ccc(CN3CCC4(CC3)COc3c4ccc4c3CN([C@H]3CCC(=O)NC3=O)C4=O)cc21 [Compound A300, (S)-3-(1′-((1-(methyl-d3)-1H-indazol-6-yl)methyl)-6-oxo-6,8-dihydro-2H,7H-spiro[furo[2,3-e]isoindole-3,4′-piperidin]-7-yl)piperidine-2,6-dione]	< 50 nM	60 to 80%
CCOc1cc(CN2CCC3(CC2)COc2c3ccc3c2CN(C2CCC(=O)NC2=O)C3=O)ccn1 (centres unmarked) [Compound A247, 3-(1′-((2-ethoxypyridin-4-yl)methyl)-6-oxo-6,8-dihydro-2H,7H-spiro[furo[2,3-e]isoindole-3,4′-piperidin]-7-yl)piperidine-2,6-dione]	> 500 nM	< 40%
O=C1CCC(N2Cc3c(ccc4c3OCC43CCN(Cc4cnn(S(=O)(=O)c5ccccc5)c4)CC3)C2=O)C(=O)N1 (centres unmarked) [Compound A336, 3-(6-oxo-1′-((1-(phenylsulfonyl)-1H-pyrazol-4-yl)methyl)-6,8-dihydro-2H,7H-spiro[furo[2,3-e]isoindole-3,4′-piperidin]-7-yl)piperidine-2,6-dione]	> 500 nM	40 to 60%
O=C1CCC(N2Cc3c(ccc4c3OCC43CCN(Cc4nccc5ccccc45)CC3)C2=O)C(=O)N1 (centres unmarked) [Compound A42, 3-(1′-(isoquinolin-1-ylmethyl)-6-oxo-6,8-dihydro-2H,7H-spiro[furo[2,3-e]isoindole-3,4′-piperidin]-7-yl)piperidine-2,6-dione]	> 500 nM	< 40%
